For the assay, the species on record is Mus musculus. The assay is described as follows: Antiinflammatory activity against PMA-induced ear inflammation in mouse assessed as decrease in ear weight at 50 ug/ear. Type of assay: functional. The arrangement: scale not given: the % may be the effect or the level left.

With `CC(=O)O[C@@H]1C[C@H]2[C@@](C)(CC[C@H]3C(C)(C)CCC[C@]23C)[C@@H]2CC=C(C=O)C[C@]21C` [HYRTIAL], the Activity worked out at 43%.
